Measured values taken from patent publication US20240279207A1, “SUBSTITUTED ACYL SULFONAMIDES FOR TREATING CANCER” (The Broad Institute, Inc., priority 2020, published 2024).

How the values were obtained:
ZR-75-1 cells = assay: ZR-75-1 proliferation assay; assay type: cell-based; settings: Homo sapiens, ZR-75-1, 144 h, Alamar Blue, read-out: ZR75-1 proliferation assay, EC50 [M] (arithmetic mean)
How it was run: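 ZR-75-1 cells (focal KAT6A amplification), 3000 per well in RPMI 1640 with 2.5% FBS, were exposed to compound in triplicate for 144 h at 37 °C, 5% CO2. Viability read by Alamar Blue fluorescence at 590 nm after 2 h.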

LCLC97TM1 = LCLC97TM1 proliferation assay; assay type: cell-based; settings: Homo sapiens, LCLC-97TM1, LCLC97TM1; read-out: LCLC97TM1 proliferation assay; EC50 [M] (arithmetic mean)
MDA-MB-436 cells = assay: MDA-MB-436 proliferation assay (negative control cell line); assay type: cell-based; settings: Homo sapiens, 144 h, Alamar Blue, read-out: MDA-MB-436 proliferation assay, EC50 [M] (arithmetic mean)
How it was run: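 MDA-MB-436 cells (KAT6A deletion, low KAT6A protein) seeded at 3000 cells/well in DMEM/Ham's F12 with 2.5% FBS, treated in triplicate for 144 h at 37° C, 5% CO2. Viability read by Alamar Blue fluorescence at 590 nm after 2 h.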

[1] = biological target: T1, Recombinant human His-tagged Kat6a protein (amino acids 194-810) (Homo sapiens, UniProt Q92794); assay: Kat6a activity assay (TR-FRET, acetylation of Histone-H4-derived peptide); assay type: biochemical; settings: 60 mins at 22° C., 220 nM H4 peptide, 600 nM Acetyl Coenzyme A, read-out: KAT6A - DPF/HAT domain IC50 [mol/l] (arithmetic mean)
T1 construct: Kat6a protein (amino acids 194-810); His

[2] = tested on: ESR1 transcription in MVLN cells; assay: MVLN reporter assay: repression of ESR1 transcription (luciferase signal); assay type: cell-based; settings: Homo sapiens, MVLN, 24 h, luciferase signal after 24 h, read-out: MVLN reporter assay, IC50 [M] (arithmetic mean)
How it was run: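 MVLN cells, expressing ER and stably carrying a vitellogenin A2 ERE-luciferase reporter, treated with compound in duplicate; luciferase read after 24 h with Steadylite plus. Cell density checked in parallel by Alamar Blue fluorescence (530/590 nm, 2 h) before the luciferase read.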

[3] = biological target: T2, Recombinant human GST-tagged Kat6b protein (431-end) (Homo sapiens, UniProt Q8WYB5); assay: Kat6b activity assay (TR-FRET, acetylation of Histone-H4-derived peptide); assay type: biochemical; settings: 30 mins at 22° C., 500 nM H4 peptide, 600 nM Acetyl Coenzyme A, read-out: KAT6B activity assay IC50 [mol/l] (arithmetic mean)
T2 construct: Kat6b protein (431-end, N-terminal GST-tag); GST (N)
Method: Kat6b inhibitory activities of the compounds described in the present invention were quantified using a Fluorescence Resonance Energy Transfer (TR-FRET) assay which measures acetylation of a synthetic, biotinylated Histone-H4-derived peptide by the enzyme.
In this case 50 nl DMSO were used instead of compounds. […] IC50 values were determined by regression analysis based on a 4 parameter equation (minimum, maximum, ICM, Hill; Y=Max+(Min−Max)/(1+(X/ICso) Hill) using the Screener Software (Genedata).

T2 sequence (Q8WYB5 431-2073): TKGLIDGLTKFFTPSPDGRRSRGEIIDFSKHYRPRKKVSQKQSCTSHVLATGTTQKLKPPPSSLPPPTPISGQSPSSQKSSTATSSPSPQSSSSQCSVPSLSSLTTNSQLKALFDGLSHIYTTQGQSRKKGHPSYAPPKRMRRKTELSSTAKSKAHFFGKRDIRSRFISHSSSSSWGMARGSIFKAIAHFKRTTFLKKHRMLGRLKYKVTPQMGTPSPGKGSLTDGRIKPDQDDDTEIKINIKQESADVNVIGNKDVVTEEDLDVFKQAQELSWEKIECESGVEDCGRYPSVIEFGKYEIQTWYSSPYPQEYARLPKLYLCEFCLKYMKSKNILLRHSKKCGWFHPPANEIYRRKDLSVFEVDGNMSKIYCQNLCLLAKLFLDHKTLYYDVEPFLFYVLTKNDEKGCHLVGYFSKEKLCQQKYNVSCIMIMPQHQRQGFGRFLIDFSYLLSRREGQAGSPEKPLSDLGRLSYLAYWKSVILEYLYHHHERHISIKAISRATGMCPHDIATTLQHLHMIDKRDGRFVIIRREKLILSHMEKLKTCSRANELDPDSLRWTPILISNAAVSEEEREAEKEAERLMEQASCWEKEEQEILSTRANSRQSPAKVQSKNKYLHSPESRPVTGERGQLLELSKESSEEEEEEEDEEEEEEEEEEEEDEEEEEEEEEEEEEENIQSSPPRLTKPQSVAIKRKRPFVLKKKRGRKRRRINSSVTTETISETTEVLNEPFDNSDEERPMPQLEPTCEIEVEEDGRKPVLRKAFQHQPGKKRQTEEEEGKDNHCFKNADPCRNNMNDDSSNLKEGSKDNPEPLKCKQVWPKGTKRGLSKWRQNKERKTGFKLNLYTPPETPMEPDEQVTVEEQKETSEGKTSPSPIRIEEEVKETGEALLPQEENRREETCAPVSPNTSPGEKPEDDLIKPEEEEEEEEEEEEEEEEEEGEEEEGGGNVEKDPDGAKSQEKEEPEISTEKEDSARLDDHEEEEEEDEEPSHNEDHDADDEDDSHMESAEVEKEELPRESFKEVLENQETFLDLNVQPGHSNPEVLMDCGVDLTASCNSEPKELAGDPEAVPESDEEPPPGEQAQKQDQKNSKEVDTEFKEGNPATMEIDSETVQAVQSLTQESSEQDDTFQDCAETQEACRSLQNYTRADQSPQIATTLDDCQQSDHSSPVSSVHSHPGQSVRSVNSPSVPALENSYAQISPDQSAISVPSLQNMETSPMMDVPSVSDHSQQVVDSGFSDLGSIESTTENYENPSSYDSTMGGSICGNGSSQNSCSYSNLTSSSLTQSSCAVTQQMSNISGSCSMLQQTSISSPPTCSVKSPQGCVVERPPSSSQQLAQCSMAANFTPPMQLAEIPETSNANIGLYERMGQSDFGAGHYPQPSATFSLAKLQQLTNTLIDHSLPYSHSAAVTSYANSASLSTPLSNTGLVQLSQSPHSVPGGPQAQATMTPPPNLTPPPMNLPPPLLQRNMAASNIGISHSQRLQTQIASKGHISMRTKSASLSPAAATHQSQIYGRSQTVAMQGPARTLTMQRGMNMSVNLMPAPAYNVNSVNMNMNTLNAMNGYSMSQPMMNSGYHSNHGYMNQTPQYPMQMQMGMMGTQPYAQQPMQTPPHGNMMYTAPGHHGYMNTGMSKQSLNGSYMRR
T1 sequence (Q92794 194-810): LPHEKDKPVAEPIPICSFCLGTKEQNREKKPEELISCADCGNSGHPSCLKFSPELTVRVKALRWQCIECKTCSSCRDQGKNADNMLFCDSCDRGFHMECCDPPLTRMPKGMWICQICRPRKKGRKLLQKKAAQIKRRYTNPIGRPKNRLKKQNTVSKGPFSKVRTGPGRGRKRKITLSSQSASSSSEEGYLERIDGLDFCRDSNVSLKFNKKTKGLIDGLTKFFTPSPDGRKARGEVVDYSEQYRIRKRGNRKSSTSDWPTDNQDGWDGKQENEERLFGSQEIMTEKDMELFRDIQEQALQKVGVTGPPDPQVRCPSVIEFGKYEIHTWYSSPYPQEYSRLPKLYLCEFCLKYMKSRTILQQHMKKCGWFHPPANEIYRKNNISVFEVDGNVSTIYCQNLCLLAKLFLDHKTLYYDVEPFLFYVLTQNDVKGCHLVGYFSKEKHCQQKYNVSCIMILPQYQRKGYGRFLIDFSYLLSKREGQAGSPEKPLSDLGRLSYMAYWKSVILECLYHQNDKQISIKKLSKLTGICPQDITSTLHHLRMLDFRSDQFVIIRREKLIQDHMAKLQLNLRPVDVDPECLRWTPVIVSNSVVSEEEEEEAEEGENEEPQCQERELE

EC50 (MDA-MB-436 cells) [M] | IC50 [1] [nM] | IC50 [2] [M] | IC50 [3] [nM] | SMILES | EC50 (ZR-75-1 cells) [M] | EC50 (LCLC97TM1) [M]
1.41e-05 | 6.18 | 3.31e-08 | 14.7 | CC(C)c1ccc(OCc2ccccc2)c(S(=O)(=O)NC(=O)c2cc3c(F)cc(N4CCC4)cc3o2)c1 [Example 213, 6-(azetidin-1-yl)-N-(2-benzyloxy-5-isopropyl-phenyl)sulfonyl-4-fluoro-benzofuran-2-carboxamide] | 1.17e-07 | 1.52e-07
1.77e-05 | 3.72 | 2.76e-08 | 9.82 | CC(C)(C)c1ccc(OC2CC2)c(S(=O)(=O)NC(=O)c2cc3c(F)cc(N4CCC4)cc3o2)c1 [Example 224, 6-(Azetidin-1-yl)-N-[(5-(tert-butyl)-2-cyclopropoxyphenyl)sulfonyl]-4-fluorobenzofuran-2-carboxamide] | 7.5e-08 | 1.14e-07
1.77e-05 | 3.72 | 2.76e-08 | 9.82 | CC(C)(C)c1ccc(OCc2ccccc2)c(S(=O)(=O)NC(=O)c2cc3c(F)cc(N4CCC4)cc3o2)c1 [Example 225, 6-(Azetidin-1-yl)-N-[(2-(benzyloxy)-5-(tert-butyl)phenyl]sulfonyl)-4-fluorobenzofuran-2-carboxamide] | 7.5e-08 | 1.14e-07
> 2e-05 | 4.79 | 3.83e-08 | 27.6 | CC(C)Oc1ccc(C(C)(C)C)cc1S(=O)(=O)NC(=O)c1cc2c(F)cc(N3CCC3)cc2o1 [Example 229, 6-(Azetidin-1-yl)-N-[(5-(tert-butyl)-2-isopropoxyphenyl)sulfonyl]-4-fluorobenzofuran-2-carboxamide] | 2.18e-07 | 1.8e-07

SMILES | EC50 (MDA-MB-436 cells) [M] | IC50 [1] [nM] | IC50 [2] [M] | IC50 [3] [nM] | EC50 (ZR-75-1 cells) [M] | EC50 (LCLC97TM1) [M]
CC(C)(C)c1ccc(OC2CCC2)c(S(=O)(=O)NC(=O)c2cc3c(F)cc(N4CCC4)cc3o2)c1 [Example 228, 6-(Azetidin-1-yl)-N-[(5-(tert-butyl)-2-cyclobutoxyphenyl)sulfonyl]-4-fluorobenzofuran-2-carboxamide] | > 2e-05 | 2.57 | 2.39e-08 | 13.4 | 1.16e-07 | 1.67e-07
